# Measured values published in patent US5064813A, “Combination therapy for selected sex steroid dependent cancers” (priority 1989, dated 1991).
# Experiments:
# advanced breast cancer = details: cited from earlier work
# serum testosterone = experiment: LHRH agonist-induced serum testosterone in the dog (RIA); format: in vivo; details: dogs; for prevention of the LHRH agonist-induced rise in serum testosterone: per os three times daily with 50 μg LHRH-A daily (ketoconazole 200 mg; aminoglutethimide 125 mg plus hydrocortisone), first days of treatment, FIG. 2 and 3
# Method: Eighteen mongrel dogs weighing between 20-30 kg were randomly divided into three groups. The animals were housed one per cage and fed Purina Dog Chow and tap water ad libitum.
# The animals of group 1 were injected daily (at 0700h) with 50 μg of the LHRH agonist [D-Trp^6, des-Gly-NH2^10 ]LHRH ethylamide (LHRH-A). In group 2, the animals were also injected daily with 50 μg of LHRH-A and took in addition 200 mg of ketoconazole per os at 0700h, 1500h and 2300h. The animals of group 3 received daily 50 μg of LHRH-A and 125 mg of aminoglutethimide per os at 0700h, 1500h, 2300h plus 10 mg of hydrocortisone twice daily.
# Blood samples were collected at 0700h, 0900h, 1100h and 1500h one day before treatment and every day during the treatment. Plasma was extracted with diethyl ether and testosterone was separated on LH-20 columns before RIA measurements.
# testosterone levels = details: rodents, in combination with chronic administration of Leuprolide; Santen et al. 1984; cited from earlier work
smiles,measurement,setting,value
"CC/C(=C(\c1ccccc1)c1ccc(OCCN(C)C)cc1)c1ccccc1 [Tamoxifen, (Z)-2-[4-(1,2-diphenyl-1-butenyl)phenoxy]-N,N-dimethylethanamine]","remission of advanced breast cancer, share of the patients treated","advanced breast cancer; Tamoxifen alone, Mouridsen et al. 1978",about 30%
same,objective remission of breast cancer,"advanced breast cancer; combined use with the LH-RH agonist Buserelin, Klijn et al. 1984",35%
"CCNC(=O)[C@@H]1CCCN1C(=O)[C@H](CCCNC(=N)N)NC(=O)[C@H](CC(C)C)NC(=O)[C@@H](Cc1c[nH]c2ccccc12)NC(=O)[C@H](Cc1ccc(O)cc1)NC(=O)[C@H](CO)NC(=O)[C@H](Cc1c[nH]c2ccccc12)NC(=O)[C@H](Cc1c[nH]cn1)NC(=O)[C@@H]1CCC(=O)N1 [[D-Trp^6 des-Gly-NH2^10]LHRH ethylamide, [D-Trp^6, des-Gly-NH2^10]LHRH ethylamide]",level of serum testosterone on day 19,"serum testosterone; daily injection of 50 μg, day 19, FIG. 1",near-castration levels
same,increase in serum testosterone,"serum testosterone; daily injection of 50 μg, one to six days following start of treatment, FIG. 1",approximately 500 % above control
"CCC1(c2ccc(N)cc2)CCC(=O)NC1=O (stereo not shown) [aminoglutethimide, 3-(4-aminophenyl)-3-ethyl-2,6-piperidinedione]",prevention of the LHRH agonist-induced rise in serum testosterone,serum testosterone,almost completely prevented
CC(=O)N1CCN(c2ccc(OCC3COC(Cn4ccnc4)(c4ccc(Cl)cc4Cl)O3)cc2)CC1 (stereo not shown) [ketoconazole],prevention of the LHRH agonist-induced rise in serum testosterone,serum testosterone,almost completely prevented
same,basal and Leuprolide stimulated testosterone levels,testosterone levels,decreased
